The text below walks through data of patent publication US20070116800A1, “Chewing Gum with High-Potency Sweetener” (The Coca-Cola Company, priority 2005, published 2007).

The nature of data set [1]: Rate of dissolution in H2O at 25° C. of rebaudioside A polymorph and amorphous forms. Format: physicochemical.
The format of data set [2] is physicochemical. The procedure: A solution of rebaudioside A (>97% pure by HPLC ) was prepared in double distilled water (12.5 gm in 50 mL, 25% concentration) by stirring the mixture at 40° C. for 5 minutes. An amorphous form of_rebaudioside A was formed by immediately using the clear solution for spray drying with the Lab-Plant spray drier SD-04 instrument (Lab-Plant Ltd., West Yorkshire, U.K.). The solution was fed through the feed pump into the nozzle atomizer which atomized it into a spray of droplets with the help of a constant flow of nitrogen/air. […] This dry powder (11-12 g, H2O 6.74%) was discharged continuously from the drying chamber and was collected in a bottle.

Consider rebaudioside A [Form 1], for which the “Rate of dissolution in H2O at 25° C. (grade in words)” value (from here on “Rate … (grade in words)”) in data set [1] is given as “Very low”. In addition, in data set [1] (60 minutes), the “Rate of dissolution in H2O at 25° C.” value is on record as “(<0.2%/60 %/60 minutes”.
For rebaudioside A [Form 2], the “Rate … (grade in words)” value in data set [1] is recorded as “Intermediate”. Further, the “Rate of dissolution in H2O at 25° C.” value in data set [1] (5 minutes) was “(<30%/5 %/5 minutes”.
On to rebaudioside A [Form 3], for which, in data set [1], the “Rate … (grade in words)” value was “High”. Also, the “Rate of dissolution in H2O at 25° C.” value in data set [1] (5 minutes) was “(>30%/5 %/5 minutes”.
Regarding rebaudioside A [Form 4], the “Rate … (grade in words)” value in data set [1] was “High”. Also, the “Rate of dissolution in H2O at 25° C.” value in data set [1] (5 minutes) is listed as “(>35.0%/5 %/5 minutes”. The solubility in water in data set [2] is reported as above 35.0%.
